Assay results: US20200171056A1, “SULFONYLUREA COMPOUNDS IN THE TREATMENT OF DISEASE ASSOCIATED WITH UV-INDUCED DAMAGE” (CeMM - Forschungszentrum für Molekulare Medizin GmbH, priority 2017, published 2020)

Legend:
Format in all cases: cell-based, human
ΔXPA-MUTYH HAP1 cells = test: Colony formation of double knockout after UV irradiation; settings: 0.5 mM for 6 hours, 15 J/M^2 UV, 10 days (FIG. 4C)
Method: A. WT HAP1 cells were treated with or without 0.5 mM acetohexamide for 6 hours, then released into compound-free media for the indicated time points and immunoblotted with an anti-MUTYH antibody. ACTIN was used as a loading control. B. WT HAP1 cells were either treated with 0.5 mM acetohexamide alone or with 10 μM of the proteasome inhibitor MG132 for 6 hours and analyzed by immunoblotting using an anti-MUTYH antibody. C. Left panel: colony formation of the WT, ΔXPA or ΔXPA-MUTYH HAP1 cells treated with or without 0.5 mM acetohexamide for 6 hours, followed by 15 J/M^2 UV irradiation and then kept in culture for 10 days. Right panel: Macroscopic colonies were stained with crystal violet and quantified. D. WT, ΔXPA or ΔXPA-MUTYH HAP1 cells were treated with 15 J/M^2 UV or left untreated, then kept in culture for the indicated recovery times and analyzed by dot blot for the presence of CPDs within genomic DNA. […] F. Survival of WT and ΔMULE HAP1 cells exposed to UV irradiation at different doses and assessed after 3 days, using CellTitre-Glo.
Cells were treated with UV at different doses with or without drug pre-treatment and then seeded into 6-well plates, at a density of 1,000 cells/well, in duplicates for 2 weeks until visible colonies were formed. […] Next, the staining solution was removed and the wells were washed, imaged and quantified using CellProfiler.

SUR1 transcript = test: SUR1 mRNA expression by quantitative reverse transcription PCR; settings: ΔXPA cells, 0.5 mM for 6 hours, 15 J/M^2 UV (FIG. 9B)
Method: A. Fragments Per Kilobase Million (FPKM) for SUR1 and GAPDH in HAP1 WT cells compared, from RNA sequencing. B. mRNA expression of SUR1 transcript assessed by quantitative reverse transcription PCR in WT and ΔXPA cells with or without 0.5 mM acetohexamide treatment for 6 hours, followed by 15 J/M^2 UV irradiation and subsequent recovery as indicated. Expression of GAPDH was used as a reference. Error bars indicate SEM (n=3).
WT and ΔXPA HAP1 cells were harvested and RNA was isolated using phenol-chlorophorm extraction. After treatment with 1 μl DNase (Sigma), the cDNA was transcribed using SuperScript III Reverse Transcriptase (Invitrogen). An amount of 1 μg of cDNA template was used for the qRT-PCR using SYBR Green qPCR Mastermix (Qiagen). Analysis was performed in triplicates using GAPDH as a control gene. The PCR was performed on a 7900HT Fast Real-Time PCR System (Applied Biosystems). The following primers were used: […]

WT HAP1 cells = test: Survival after other DNA damaging agents (MMC, HU, MMS); settings: WT HAP1, 0.5 mM for 6 hours, 3 days
Method: A. WT and ΔXPA cells were either treated with DMSO or 0.5 mM acetohexamide for 6 hours. Cell cycle profiles were determined using propidium iodide (P1) staining followed by FACS analysis. B-D. Survival of WT HAP1 cells treated with either DMSO or 0.5 mM acetohexamide for 6 hours, followed by exposure to the indicated DNA damaging agents (MMC: mitomycin C; HU: hydroxyl urea; MMS: methyl methanesulfonate). Survival was assessed after 3 days using CellTitre-Glo. E. Cell viability of WT cells treated either with 0.5 mM acetohexamide or 30 μM N-acetylcysteine (NAC) for 6 hours, followed by 30 J/M^2 UV exposure.
Dose Responses and UV Treatment Dose-response curves for the DNA damage agents including mitomycin C (MMC), methyl methanesulfonate (MMS), hydroxyurea (HU), neocarzinostatin (NCS) and illudin S were performed in 96-well plates by seeding 1,000 cells/well in triplicates. The next day, compounds at different concentrations were added and 3 days later, cell viability was assessed using Cell Titer-Glo (Promega)

ΔXPA cells = test: Long-term colony formation assay after UV irradiation; settings: 0.5 mM acetohexamide for 6 hours, then UV; 10 days in culture (FIG. 1E)
From the text: A. Schematic representation of the experimental setup used to perform the high-throughput drug screen, where drugs were used at five-times maximal plasma concentration (CLOUD; CeMM library of unique drugs). B. Bubble plot displaying the drugs used plotted against cell viability. Light grey bubbles indicate wildtype (WT) cells, dark grey bubbles indicate XPA-deficient cells (ΔXPA). […] C. Chemical structure of acetohexamide. D. Dose-response curve of WT and ΔXPA cells treated with or without 0.5 mM acetohexamide for 6 hours, followed by UV irradiation. Survival was assessed after 3 days, using CellTiter-Glo. […] Error bars indicate SEM (n=3). E. Colony formation using the same conditions indicated in (D), where cells were kept in culture for 10 days following UV irradiation, following which they were fixed and stained.
Cells were treated with UV at different doses with or without drug pre-treatment and then seeded into 6-well plates, at a density of 1,000 cells/well, in duplicates for 2 weeks until visible colonies were formed. Then, the medium was removed, colonies were washed with PBS and fixed using 3.7% paraformaldehyde (PFA) for 1 hour. Subsequently, the PFA was removed and colonies were stained with 0.1% crystal violet in 5% ethanol solution for 1 hour. Next, the staining solution was removed and the wells were washed, imaged and quantified using CellProfiler.

MUTYH = MUTYH protein levels by immunoblotting; settings: WT HAP1, 0.5 mM for 6 hours, alone or with 10 μM MG132 (FIG. 4A-B)
Method: A. WT HAP1 cells were treated with or without 0.5 mM acetohexamide for 6 hours, then released into compound-free media for the indicated time points and immunoblotted with an anti-MUTYH antibody. ACTIN was used as a loading control. B. WT HAP1 cells were either treated with 0.5 mM acetohexamide alone or with 10 μM of the proteasome inhibitor MG132 for 6 hours and analyzed by immunoblotting using an anti-MUTYH antibody. C. Left panel: colony formation of the WT, ΔXPA or ΔXPA-MUTYH HAP1 cells treated with or without 0.5 mM acetohexamide for 6 hours, followed by 15 J/M^2 UV irradiation and then kept in culture for 10 days. Right panel: Macroscopic colonies were stained with crystal violet and quantified. D. WT, ΔXPA or ΔXPA-MUTYH HAP1 cells were treated with 15 J/M^2 UV or left untreated, then kept in culture for the indicated recovery times and analyzed by dot blot for the presence of CPDs within genomic DNA. E. Number of chromosomal abnormalities per metaphase spread of ΔXPA or ΔXPA-MUTYH HAP1 exposed to different doses of UV irradiation. Data in (E) represented as mean±SEM. F. Survival of WT and ΔMULE HAP1 cells exposed to UV irradiation at different doses and assessed after 3 days, using CellTitre-Glo.
Cells were lysed in lysis buffer composed of RIPA lysis buffer supplemented with protease inhibitors (Sigma) and phosphatase inhibitors (Sigma, NEB). […]

CC(=O)c1ccc(S(=O)(=O)NC(=O)NC2CCCCC2)cc1 [acetohexamide]
survival of double knockout ΔXPA-MUTYH upon UV treatment (ΔXPA-MUTYH HAP1 cells): did not lead to a further increase in survival upon UV treatment
SUR1 expression (SUR1 transcript): not expressed
cellular survival following exposure to HU (WT HAP1 cells; then hydroxyurea): did not increase cellular survival
cellular survival following exposure to MMS (WT HAP1 cells; then methyl methanesulfonate): did not increase cellular survival
cellular survival following exposure to MMC (WT HAP1 cells; then mitomycin C): did not increase cellular survival
UV sensitivity of ΔXPA cells, long-term colony formation assay (ΔXPA cells): alleviated the UV sensitivity of ΔXPA cells almost to the level of wildtype cells
MUTYH protein levels (MUTYH): decrease in MUTYH protein levels in a proteasome dependent manner
